Earlier results in PMC2360332 (British Journal of Cancer, 2007).

Tests used:
immature mouse uterus = details: earlier study; ref Bennett et al, 2002; cited from earlier work
Description: In fact, in this study and ...

[1] = test system: human breast cancer xenografts; details: cited from earlier work
Description: A peptide (α-fetoprotein-derived peptide (AFPep), sequence cyclo(EKTOVNOGN), where O is hydroxyproline) derived from the active site of α-fetoprotein (AFP) has been under investigation as a potential agent for prevention or therapy of oestrogen receptor-positive (ER+) breast cancer ([Mesfin et al, 2000], [2001]; [Bennett et al, 2002], [2006]; [DeFreest et al, 2004]). […] In fact, in this study and ...

[2] = parameters: method as in earlier work; details: high doses; ref Mesfin et al, 2001; Bennett et al, 2002, 2006; Parikh et al, 2005; cited from earlier work
[3] = test system: breast cancer that had become resistant to the cytostatic effects of tamoxifen; details: ref Bennett et al, 2002; cited from earlier work
Description: (§1) A peptide (α-fetoprotein-derived peptide (AFPep), sequence cyclo(EKTOVNOGN), where O is hydroxyproline) derived from the active site of α-fetoprotein (AFP) has been under investigation as a potential agent for prevention or therapy of oestrogen receptor-positive (ER+) breast cancer ([Mesfin et al, 2000], [2001]; [Bennett et al, 2002], [2006]; [DeFreest et al, 2004]).

[4] = test system: MNU-induced breast cancers in rats; details: ref Parikh et al, 2005; cited from earlier work
Description: as §1

breast cancer = details: cited from earlier work
breast cancer growth = test system: breast cancer growth; parameters: method as in Lippman and Bolan, 1975; details: ref Lippman and Bolan, 1975; cited from earlier work

Compound: cyclo(EKTOVNOGN) (head to tail) [AFPep]
- Tam-induced uterine hyperplasia (in words) (immature mouse uterus): interferes with the uterine hyperplasia induced by Tam
- Oral activity (in words) ([1]; oral route, ref Bennett et al, 2006): active by the oral route
- Growth of human breast cancer xenografts in mice (in words) ([1]; ref Mesfin et al, 2001): inhibit the growth of human breast cancer xenografts in mice
- Toxicity or side effects in previous work (in words) [2]: no evidence of toxicity or side effects has been detected
- Growth of tamoxifen-resistant breast cancer (in words) [3]: inhibit the growth of breast cancer that had become resistant to the cytostatic effects of tamoxifen
- Development of carcinogen-induced mammary cancers in rats (in words) [4]: prevent the development of carcinogen-induced mammary cancers in rats

Compound: CC/C(=C(\c1ccccc1)c1ccc(OCCN(C)C)cc1)c1ccccc1 [Tam, Tamoxifen, reference compound]
- Risk of primary breast cancers (in words) (breast cancer; high-risk patients, ref Fisher et al, 1998): decrease the risk of primary breast cancers in high-risk patients
- Breast cancer recurrences (in words) (breast cancer; ref Early Breast Cancer Trialists' Collaborative Group, 1992): inhibit breast cancer recurrences
- Breast cancer growth (in words) (breast cancer growth): inhibit breast cancer growth
